Patent publication US20120138290A1, “METHODS TO STIMULATE BIOGENIC METHANE PRODUCTION FROM HYDROCARBON-BEARING FORMATIONS” (SYNTHETIC GENOMICS, INC., priority 2010, published 2012)
Values joined by “and” are separate entries in the source; they are usually repeats but may differ in a detail not shown here. Equal entries are not always repeated.

What was measured:
[1] = test system: functional microbial subcommunity (inoculum 2L-245 from upflow reactor); test: Stimulation of methane production: batch cultures with additive/stimulant, with or without coal, headspace methane by gas chromatography; type: cell-based
Description: The availability of an inoculum of a functional microbial subcommunity capable of producing methane from coal in vitro prompted laboratory experiments where various stimulants were tested for their effect on methane production. […] The experiments were conducted at three different levels of additives (0.5×, 1× and 2×): additives (stimulants) were added in the following three concentrations. […] DMY media: DM media composition in milli-Q water is made as described above with the addition of 0.5 g/L yeast extract. DMSC media: DM media in milli-Q water is made as described above with the addition of 100 g/L sterile, anaerobic, sub-bituminous coal from the San Juan Basin. DMSCY media: DM media in milli-Q water is made as described above with the addition of 100 g/L sterile, anaerobic, sub-bituminous coal from the San Juan Basin and 0.5 g/L yeast extract. The coal used in these experiments originated from the San Juan Basin (BHP Billiton, Tex.). […] Each stimulant was tested in the presence or absence of coal. The experiments were conducted at three different concentrations of additives (0.5× (low), 1× (medium), and 2× (high)) as described above. Each sample type was conducted in 4 replicates. […] Control sample types were media alone, media plus coal, media plus yeast extract and media plus coal and yeast extract. At each time point, headspace measurements were taken using gas chromatography (microGC […], Agilent Technologies, Inc.). […] Each experiment was performed in quadruplicate. Methane at time 0 was assumed to be 0%.

[2] = test system: formate-utilizing, methane-producing species in the enrichment culture; test: Stimulation of methane production by vanadium in cultures utilizing formate; type: cell-based; conditions: for Methane (% in head space volume of 21 ml): DM media with 50 mM formate, 48 hours at 50° C., replicate cultures
Description: The anaerobic reactor system described above in Example 1 contains formate-utilizing, methane-producing species in the enrichment culture. Methanogens in the culture were previously identified by 16sRNA sequencing.
A 10% vol./vol. inoculum was taken from the anaerobic reactor system described above in Example 1, and the effect of vanadium on methane production by methanogens utilizing formate as a carbon and energy source was determined.
Cultures, established with DM media (prepared as described above) containing 50 mM formate as the sole carbon and energy source, were sub-cultured with the same media (in the absence of vanadium) or media supplemented with either 5 or 10 μM VCl3. Methane production was measured after 48 hours of growth at 50° C.

[3] = DMSCY (coal), 125 μM Na2SO3, week 1
[4] = DMSCY (coal), 125 μM Na2SO3, week 3
[5] = DMSCY (coal), 125 μM Na2SO3, week 5
[6] = DMSCY (coal), 250 μM Na2SO3, week 1
[7] = DMSCY (coal), 250 μM Na2SO3, week 3
[8] = DMSCY (coal), 250 μM Na2SO3, week 5
[9] = DMSCY (coal), 500 μM Na2SO3, week 1
[10] = DMSCY (coal), 500 μM Na2SO3, week 3
[11] = DMSCY (coal), 500 μM Na2SO3, week 5
[12] = DMY (no coal), 125 μM Na2SO3, week 1
[13] = DMY (no coal), 125 μM Na2SO3, week 3
[14] = DMY (no coal), 125 μM Na2SO3, week 5
[15] = DMY (no coal), 250 μM Na2SO3, week 1
[16] = DMY (no coal), 250 μM Na2SO3, week 3
[17] = DMY (no coal), 250 μM Na2SO3, week 5
[18] = DMY (no coal), 500 μM Na2SO3, week 1
[19] = DMY (no coal), 500 μM Na2SO3, week 3
[20] = DMY (no coal), 500 μM Na2SO3, week 5
[21] = DMSCY (coal), 5 μM VCl3, week 1
[22] = DMSCY (coal), 5 μM VCl3, week 3
[23] = DMSCY (coal), 5 μM VCl3, week 5
[24] = DMSCY (coal), 10 μM VCl3, week 1
[25] = DMSCY (coal), 10 μM VCl3, week 3
[26] = DMSCY (coal), 10 μM VCl3, week 5
[27] = DMY (no coal), 5 μM VCl3, week 1
[28] = DMY (no coal), 5 μM VCl3, week 3
[29] = DMY (no coal), 5 μM VCl3, week 5
[30] = DMY (no coal), 10 μM VCl3, week 1
[31] = DMY (no coal), 10 μM VCl3, week 3
[32] = DMY (no coal), 10 μM VCl3, week 5
[33] = DMSCY (coal), 5.0 μM MnCl2, week 3
[34] = DMSCY (coal), 5.0 μM MnCl2, week 5
[35] = DMSCY (coal), 10 μM MnCl2, week 1
[36] = DMSCY (coal), 10 μM MnCl2, week 3
[37] = DMSCY (coal), 10 μM MnCl2, week 5
[38] = DMY (no coal), 5.0 μM MnCl2, week 1
[39] = DMY (no coal), 5.0 μM MnCl2, week 3
[40] = DMY (no coal), 5.0 μM MnCl2, week 5
[41] = DMY (no coal), 10 μM MnCl2, week 1
[42] = DMY (no coal), 10 μM MnCl2, week 3
[43] = DMY (no coal), 10 μM MnCl2, week 5

Compound: O=S([O-])[O-].[Na+].[Na+] [Na2SO3, sodium sulfite]
- methane production (Average) [1, 3]: 0.27
- methane production (RepA-Rep D) [1, 3]: 0.26 and 0.24 and 0.25 and 0.32
- methane production (Average) [1, 4]: 1.02
- methane production (RepA-Rep D) [1, 4]: 1.04 and 0.97 and 0.99 and 1.06
- methane production (Average) [1, 5]: 1.25
- methane production (RepA-Rep D) [1, 5]: 1.21 and 1.22 and 1.25 and 1.31
- methane production (Average) [1, 6]: 20
- methane production (RepA-Rep D) [1, 6]: 0.23 and 0.18 and 0.19 and 0.20
- methane production (Average) [1, 7]: 1.07
- methane production (RepA-Rep D) [1, 7]: 1.04 and 1.02 and 1.06 and 1.18
- methane production (Average) [1, 8]: 1.42
- methane production (RepA-Rep D) [1, 8]: 1.26 and 1.24 and 1.45 and 1.74
- methane production (Average) [1, 9]: 0.14
- methane production (RepA-Rep D) [1, 9]: 0.14 and 0.13 and 0.15
- methane production (Average) [1, 10]: 1.04
- methane production (RepA-Rep D) [1, 10]: 1.01 and 0.98 and 1.07 and 1.04
- methane production (Average) [1, 11]: 1.35
- methane production (RepA-Rep D) [1, 11]: 1.34 and 1.26 and 1.37 and 1.41
- methane production (Average) [1, 12]: 0.21
- methane production (RepA-Rep D) [1, 12]: 0.20 and 0.21 and 0.22
- methane production (Average) [1, 13]: 0.71
- methane production (RepA-Rep D) [1, 13]: 0.71 and 0.68 and 0.69 and 0.75
- methane production (Average) [1, 14]: 0.68
- methane production (RepA-Rep D) [1, 14]: 0.66 and 0.69 and 0.71
- methane production (Average) [1, 15]: 0.14
- methane production (RepA-Rep D) [1, 15]: 0.14 and 0.15 and 0.13
- methane production (Average) [1, 16]: 0.67
- methane production (RepA-Rep D) [1, 16]: 0.67 and 0.63 and 0.65 and 0.72
- methane production (Average) [1, 17]: 0.62
- methane production (RepA-Rep D) [1, 17]: 0.62 and 0.59 and 0.65
- methane production (Average) [1, 18]: 0.09
- methane production (RepA-Rep D) [1, 18]: 0.09 and 0.08 and 0.10
- methane production (Average) [1, 19]: 0.68
- methane production (RepA-Rep D) [1, 19]: 0.71 and 0.64 and 0.74
- methane production (Average) [1, 20]: 0.74
- methane production (RepA-Rep D) [1, 20]: 0.83 and 0.68 and 0.76

Compound: [Cl-].[Cl-].[Cl-].[V+3] [VCl3, vanadium (III) chloride]
- Methane (% in head space volume of 21 ml) ([2]; 5 μM VCl3 final): 2.0% and 1.2%
- Methane (% in head space volume of 21 ml) ([2]; 10 μM VCl3 final): 1.9% and 1.4%
- methane formation relative to cultures without VCl3 (average) ([2]; VCl3-supplemented cultures (5 or 10 μM), 50 mM formate, 48 hours): approximately 2 fold
- methane production (Average) [1, 21]: 0.27
- methane production (RepA-Rep D) [1, 21]: 0.30 and 0.26 and 0.25
- methane production (Average) [1, 22]: 1.50
- methane production (RepA-Rep D) [1, 22]: 1.51 and 1.40 and 1.21 and 1.88
- methane production (Average) [1, 23]: 2.44
- methane production (RepA-Rep D) [1, 23]: 2.41 and 2.28 and 1.95 and 3.13
- methane production (Average) [1, 24]: 0.25
- methane production (RepA-Rep D) [1, 24]: 0.29 and 0.25 and 0.24
- methane production (Average) [1, 25]: 1.06
- methane production (RepA-Rep D) [1, 25]: 1.15 and 1.04 and 1.01
- methane production (Average) [1, 26]: 1.36
- methane production (RepA-Rep D) [1, 26]: 1.49 and 1.31 and 1.30 and 1.33
- methane production (Average) [1, 27]: 0.20
- methane production (RepA-Rep D) [1, 27]: 0.21 and 0.20
- methane production (Average) [1, 28]: 0.71
- methane production (RepA-Rep D) [1, 28]: 0.78 and 0.69 and 0.67 and 0.80
- methane production (Average) [1, 29]: 0.70
- methane production (RepA-Rep D) [1, 29]: 0.75 and 0.70 and 0.68 and 0.67
- methane production (Average) [1, 30]: 0.22
- methane production (RepA-Rep D) [1, 30]: 0.21 and 0.251 and 0.19 and 0.22
- methane production (Average) [1, 31]: 0.77
- methane production (RepA-Rep D) [1, 31]: 0.85 and 0.7495 and 0.70 and 0.78
- methane production (Average) [1, 32]: 0.76
- methane production (RepA-Rep D) [1, 32]: 0.76 and 0.82 and 0.70 and 0.77
- effect on the production of methane ([1]; intermediate concentration of the stimulant (FIGS. 1A, 1B, 2A)): statistically significant positive effect
- dependence of methane production on coal ([1]; with or without coal): only observed in the presence of coal

Compound: manganese chloride [MnCl2]
- methane production (Average) ([1]; DMSCY (coal), 5.0 μM MnCl2, week 1): 0.44
- methane production (Average) [1, 33]: 1.56
- methane production (RepA-Rep D) [1, 33]: 1.51 and 1.55 and 1.53 and 1.64
- methane production (Average) [1, 34]: 1.82
- methane production (RepA-Rep D) [1, 34]: 1.94 and 1.81 and 1.70 and 1.85
- methane production (Average) [1, 35]: 0.42
- methane production (RepA-Rep D) [1, 35]: 0.44 and 0.41 and 0.43
- methane production (Average) [1, 36]: 1.46
- methane production (RepA-Rep D) [1, 36]: 1.45 and 1.49 and 1.43 and 1.48
- methane production (Average) [1, 37]: 1.72
- methane production (RepA-Rep D) [1, 37]: 1.63 and 1.82 and 1.71 and 1.70
- methane production (Average) [1, 38]: 0.34
- methane production (RepA-Rep D) [1, 38]: 0.34 and 0.33 and 0.36
- methane production (Average) [1, 39]: 0.92
- methane production (RepA-Rep D) [1, 39]: 0.92 and 0.90 and 0.94
- methane production (Average) [1, 40]: 0.87
- methane production (RepA-Rep D) [1, 40]: 0.89 and 0.86 and 0.85 and 0.88
- methane production (Average) [1, 41]: 0.36
- methane production (RepA-Rep D) [1, 41]: 0.39 and 0.38 and 0.35
- methane production (Average) [1, 42]: 1.02
- methane production (RepA-Rep D) [1, 42]: 1.00 and 1.05 and 1.04 and 1.01
- methane production (Average) [1, 43]: 0.97
- methane production (RepA-Rep D) [1, 43]: 0.89 and 1.03 and 0.96 and 1.01
